The values below come from article PMC6297231 (Nature Communications, 2018).

pIC50, pKi: −log10 of the molar value.

In one data set the test system is MV4-11 tumors. The data set is described as follows: MV4-11 rat subcutaneous xenograft. Format: in vivo. On the procedure:
Female C.B.-17 SCID mice and female nude rats were purchased from Charles River Laboratories. […]. All xenograft studies were conducted at our Association for the Assessment and Accreditation of Laboratory Animal Care accredited facility in Waltham, MA in accordance with ethical regulations described in the guidelines established by the internal Institutional Animal Care and Use Committee. […]. In mice, drugs were dosed intravenously in a volume of 5 mL kg^-1 except for venetoclax that was dosed orally in a volume of 10 mL kg^-1. […]. Ten million MV4-11 cells were injected subcutaneously in the right flank of rats in a volume of 0.1 mL. Tumor volumes (measured by caliper), animal body weight, and tumor condition were recorded twice weekly for the duration of the study. The tumor volume was calculated using the formula: length (mm) × width (mm)^2/0.52. For efficacy studies, growth inhibition from the start of treatment was assessed by comparison of the differences in tumor volume between control and treated groups. Statistical significance was evaluated using non-parametric, unpaired, two-tailed t-test. […] For pharmacokinetic analysis, plasma samples were precipitated and diluted with acetonitrile containing internal standard and analyzed by LC–MS/MS versus a calibration curve of known concentrations.

Another data set has as its system Karpas620. The data set is described as follows: Cell viability assay. Conditions: Karpas-620, 24 h; Karpas620 (MM); read-out: AZD5991 24h GI50. Format: cell-based.
The subject of the next data set is H2122. The data set can be described thus: Cell viability assay. The data set is classed as cell-based. Conditions: Homo sapiens, NCI-H2122, 24 h; H2122 (Lung); read-out: AZD5991 24h GI50.
The test system of a further data set is SKMEL24. The data set can be described thus: Cell viability assay. Conditions: Homo sapiens, SK-MEL-24, 24 h; SKMEL24 (Skin); read-out: AZD5991 24h GI50. The data set is classed as cell-based.
Another data set deals with KMS34. The data set can be described thus: Cell viability assay. Conditions: KMS-34, 24 h; KMS34 (MM); read-out: AZD5991 24h GI50. The data set is classed as cell-based.
In another data set the test system is RPMI8226. The data set is described as follows: Cell viability assay. Format: cell-based. Conditions: Homo sapiens, RPMI-8226, 24 h; RPMI8226 (MM); read-out: AZD5991 24h GI50.
Another data set deals with T1, Bcl-2 (Homo sapiens, UniProt P10415).
T1 construct: C-Terminal 6His-tagged Bcl-2 protein from Bcl-2 (M1-F212); made in house; host or cells: E. coli
The data set can be described thus: TR-FRET binding assay. From the text:
(§1) N-terminal GST-tagged-Mcl-1 protein from Mcl-1 (E171-G327), N-terminal GST-tagged Bcl-xL protein from Bcl-xL (1-209), N-Terminal 6His-tagged Bfl-1 protein from Bfl-1 (M1-K151), N-Terminal 6His-tagged Bcl-w protein from Bcl-w (M1-R171), and C-Terminal 6His-tagged Bcl-2 protein from Bcl-2 (M1-F212) were expressed as a tagged fusion protein in E. coli and subsequently purified via Glutathione Sepharose-affinity or Ni-NTA resin purification, and size-exclusion chromatography.
(§2) For TR-FRET, tagged fusion proteins were incubated with a Europium-labeled antibody and a HyLite Fluor 647-labeled peptide, or a biotin-labeled peptide with a streptavidin-labeled ulight fluorophore allowing the assembly of donor and acceptor dye pairs for use in protein-binding assays.
(§3) The reaction final concentrations for Mcl-1 were 1.5 nM GST-Mcl-1, 0.5 nM LanthaScreen Eu tagged GST antibody (LifeTechnologies cat#PV5594), and 4 nM HyLite Fluor 647-labeled Bim peptide C (Hilyte647 C2 Maleimide)-[…]; for Bcl-xl were 2 nM GST-Bcl-xl, 2 nM LanthaScreen Eu-tagged GST antibody, and 10 nM HyLite Fluor 647-labeled BAK peptide C(Hilyte647 C2 Maleimide)-[…]; for Bfl-1 were 4 nM His-Bfl-1, 0.5 nM LanthaScreen Eu-tagged HIS antibody (PerkinElmer cat#AD0205), and 10 nM HyLite Fluor 647-labeled BIM peptide C(Hilyte647-C2-Maleimide)-[…]; for Bcl-2 and Bcl-w: 2 nM His-Bcl-2, or 2 nM His-Bcl-w, with 0.5 nM LanthaScreen Eu-tagged HIS antibody, 10 nM biotin-labeled Bim peptide (Biotin-lc-[…]), and 2.4 nM a streptavidin labeled ULight Fluorophore (PerkinElmer cat#TRF0102-D). Reactions were incubated at 24 °C for 120–180 min before reading on a Tecan (InfiniteM1000 spectrofluorometer) with excitation at 340 nm and emission at […] and 665 nm. Ratio of fluorescent emission intensity at 665–620 nm was calculated for each reaction (equation 1). Percent inhibition was calculated based upon min (control compound) vs. max (DMSO) according to Eq. (2) and the IC50 was derived the smart fit curve (Genedata screener) of % inhibition vs. concentration. Ki values were calculated from Eq. […]
For orientation: In TR-FRET formats the signal depends on donor and acceptor labels being close together.

A further data set addresses T2, Bfl-1 (Homo sapiens, UniProt Q16548).
T2 construct: N-Terminal 6His-tagged Bfl-1 protein from Bfl-1 (M1-K151); made in house; host or cells: E. coli
The data set can be described thus: TR-FRET binding assay.
Description: as §1, §2, §3

The next data set relates to L363. The data set is described as follows: Cell viability assay. Format: cell-based. The note with it: Homo sapiens, L-363, 24 h; L363 (MM); read-out: AZD5991 24h GI50.
Another data set deals with SNU1197. The data set can be described thus: Cell viability assay. The data set is classed as cell-based. The note with it: 24 h; SNU1197 (GI); read-out: AZD5991 24h GI50.
Another data set concerns EOL1. The data set can be described thus: Cell viability assay. Format: cell-based. Conditions: Homo sapiens, 24 h; EOL1 (AML); read-out: AZD5991 24h GI50.
The test system of the next data set is MALME3M. The data set is described as follows: Cell viability assay. The data set is classed as cell-based. The note with it: Homo sapiens, Malme-3M, 24 h; MALME3M (Skin); read-out: AZD5991 24h GI50.

T1 sequence (P10415 1-212): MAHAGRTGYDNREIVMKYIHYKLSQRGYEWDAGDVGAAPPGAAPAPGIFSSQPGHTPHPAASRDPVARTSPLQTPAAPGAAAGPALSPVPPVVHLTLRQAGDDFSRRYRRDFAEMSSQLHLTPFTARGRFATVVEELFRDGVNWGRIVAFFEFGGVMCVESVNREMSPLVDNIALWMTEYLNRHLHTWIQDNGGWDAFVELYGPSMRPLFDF
T2 sequence (Q16548 1-151): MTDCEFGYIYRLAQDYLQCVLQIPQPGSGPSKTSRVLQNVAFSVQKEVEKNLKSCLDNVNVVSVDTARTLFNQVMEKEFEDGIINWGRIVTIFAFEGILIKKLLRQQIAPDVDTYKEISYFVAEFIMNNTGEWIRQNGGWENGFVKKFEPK
Description for EOL1: (§4) Cells were plated at 3000 cells/well in 384-well white plates in corresponding cell growth media. […] Caspase-3/7 activation was subsequently determined using a Caspase-Glo 3/7 Reagent (Promega) and viability was assayed using the CellTiter-Glo Reagent (Promega) as described in manufacturer’s instructions. Dose–response curves for caspase-3/7 activation and viability were plotted and analyzed (including EC50 and GI50 determination) using GraphPad Prism.
Description for H2122: as §4
Description for KMS34: as §4
Description for Karpas620: as §4
Description for L363: as §4
Description for MALME3M: as §4
Description for RPMI8226: as §4
Description for SKMEL24: as §4
Description for SNU1197: as §4

For the molecule `Cc1c2c(nn1C)CSCc1cc(n(C)n1)CSc1cc(c3ccccc3c1)OCCCc1c(C(=O)O)n(C)c3c-2c(Cl)ccc13` (atropisomer, axis not shown; (Ra)) [(Ra)-7], the “tolerability, body weight” value with MV4-11 tumors (30 mg kg^−1 i.v.) is “no significant body weight loss”. Also, in the data set on MV4-11 tumors (single i.v. dose 30 mg kg^−1), the antitumor response result is recorded as “TR observed”. Also, the GI50 amounted to 0.087 µM in the data set with Karpas620; 18.7 µM in the data set with H2122; 17.9 µM with SKMEL24; 0.503 µM in the data set with KMS34; 0.055 µM in the data set with RPMI8226; 0.075 µM in the data set on L363. Also, the GI50 in the data set on SNU1197 amounted to 27.3 µM; with EOL1, 0.012 µM; in the data set with MALME3M, 19.5 µM. In addition, the pIC50 is 4.70 on Bcl-2 (FRET) and 4.62 at Bfl-1 (FRET). Further, the negative logarithm of the Ki (pKi) was 5.17 on Bcl-2 (calculated from FRET IC50) and 4.92 at Bfl-1 (calculated from FRET IC50).

As a reminder, the GI50 is the concentration at which growth is held to half of that of the control. As a reminder, the pIC50 is the IC50 on a negative log10 scale, so that one unit is a factor of ten. A high value points to a small IC50. Usually pKi stands for the negative decadic logarithm of the Ki, by convention in mol/L.
